Literature values as cited in patent publication US6525037B1, “Method of treating atherosclerosis and complications resulting therefrom” (BioNumerik Pharmaceuticals, Inc., priority 2000, dated 2003).

Details: accepted value

## [Cl-].[Na+] [common table salt]
  oral LD50: 3750 mg/kg
